Laboratory results from patent US20100129370A1, “Trefoil Factors and Methods of Treating Proliferation Disorders Using Same” (priority 2004, published 2010).

Columns and labels:
Format in all cases: cell-based, human
TFF1 promoter = TFF1 promoter activity in MCF7 cells treated with E2 or TAM; conditions: 24 hours treatment, FIG. 9B
Method: (§1) MCF7 cells produce endogenous levels of TFF1. MCF7 cells were cultured in phenol red free RPMI 1640 containing 10% dextran coated charcoal stripped fetal bovine serum in a 6 well plate for 24 hours. Then the cells were changed to treatment media containing 10 nM E2 or 1 μM TAM and cultured for 24 hours in the same. Untreated cells cultured in serum free media acted as controls.

MCF-7-TamR cells = experiment: Cell morphology assay, MCF-7-TamR cells; conditions: single agent, 48 h, FIG. 19
Method: Tamoxifen resistant MCF-7-Tam^R cells were plated at a concentration of 5×10^3 cells/well in 96-well plates in 100 μl of phenol red free RPMI 1640 medium containing dextran coated charcoal stripped 10% FBS. The plates were incubated at 37° C. for 24 h to allow the cells to reattach and re-equilibrate. Without removing any medium, anti-TFF3 antibody and/or tamoxifen were then added at twice the final concentration in a volume of 100 μl of the culture media. After 48 h images of cells were taken at 10× magnification under phase contrast microscope (Olympus IX70).
Cells were plated in phenol red free RPMI 1640 medium containing dextran coated charcoal stripped 10% FBS at 5×10^3 cells/100 μl/well in 96-well plates. After 24 hours incubation, anti-TFF3 antibody and/or tamoxifen (TAM) were then added at twice the final concentration in a volume of 100 μl. The cells were then taken photos using Olympus phase contrast microscope under 10× magnification. CK-09 is the pre-immune sera for the rabbit polyclonal antibodies of human TFF3 (anti-09).

TFF3 = TFF3 transcript levels (RT-PCR) in MCF7 cells treated with E2 or TAM; conditions: 10 nM E2 or 1 μM TAM, 24 hours, FIG. 7A
Method: RT-PCR was performed in a final volume of […] containing 0.2 μg of mRNA template, 0.6 μM primers, […] of enzyme mix, 400 μM of each dNTP, 10 reaction buffer, and 10 Q-Solution by use of the Qiagen One-step RT-PCR kit. RNA template was reverse-transcribed into cDNA for 30 min at 50° C.; Hotstart TaqDNA polymerase was activated by heating for 15 min at 95° C.; the denatured cDNA templates were amplified by the following cycles: 94° C./30 s, 55° C./30 s, and 72° C./60 s. A final extension was performed for 10 min at 72° C. In order to compare the PCR products semiquantitatively, 15-40 cycles of PCR (annealing temperature 55° C.) were performed to determine the linearity of the PCR amplification, and the amplified β-actin cDNA served as an internal control for cDNA quantity and quality. All RNA samples were treated with DNase I to avoid genomic DNA contaminations.
(§2) It was of interest to determine if the expression of TFF3 is related to estrogen receptor status. MCF7 cells were cultured in phenol red free RPMI 1640 containing 10% dextran coated charcoal stripped fetal bovine serum in a 6 well plate for 24 hours. Then the cells were changed to treatment media containing 10 nM E2 or 1 μM TAM and cultured for 24 hours in the same. Untreated cells cultured in serum free media acted as controls.

TFF3 promoter = TFF3 promoter activity in MCF-7 cells treated with E2 or TAM; conditions: 24 hours treatment, FIG. 7B, p<0.05
Method: as §2

TFF1 = TFF1 transcript levels (RT-PCR) in MCF7 cells treated with E2 or tamoxifen; conditions: 10 nM E2 or 1 μM TAM, 24 hours, FIG. 9A
Method: as §1

CEACAM6 gene = experiment: CEACAM6 luciferase reporter assay in MCF-7 cells; conditions: MCF-7 co-transfected with expression plasmid, 36 hours post transfection
MCF-TFF3 cells = experiment: Soft agar colony formation in estrogen-depleted media with estrogen added; conditions: estrogen added to estrogen-depleted media, MCF-TFF3, FIG. 10B
Method: (§3) MCF7-VECTOR and MCF7-TFF3 cells were cultured in phenol red free RPMI 1640 media with 10% dextran coated charcoal stripped fetal bovine serum.

[1] = system: MCF7-VECTOR and MCF7-TFF3 cells; experiment: Total cell number assay in estrogen-depleted media with estrogen supplement; conditions: estrogen supplemented to estrogen-depleted media, FIG. 10A
Method: as §3

Molecule	TFF1 promoter activity (TFF1 promoter)	cell morphology / cell death (MCF-7-TamR cells)	transcript levels of TFF3 (TFF3)	TFF3 promoter activity (TFF3 promoter)	transcript levels of TFF1 (TFF1)	stimulation of CEACAM6 expression compared with control vector (CEACAM6 gene)	soft agar colony numbers (MCF-TFF3 cells)	total cell number [1]
CC/C(=C(\c1ccccc1)c1ccc(OCCN(C)C)cc1)c1ccccc1 [TAM, tamoxifen]	increase	look healthy and similar to untreated control	significantly but not as high transcript levels	increase	very significant increase	–	–	–
TFF3: wild type human TFF3 expressed from plasmid in MCF-7 cells (EEYVGLSANQCAVPAKDRVDCGYPHVTPKECNNRGCCFDSRIPGVPWCFKPLQEAECTF)	–	–	–	–	–	two fold	–	–
C[C@]12CC[C@@H]3c4ccc(O)cc4CC[C@H]3[C@@H]1CC[C@@H]2O [E2, estradiol]	increase	–	very high increased transcript levels	increase	very significant increase	–	further increases the colony numbers significantly	brings back the total cell number to the control cells
